According to the kinase profiling compilation of Christmann-Franck et al. (2016):

Tests used:
Test in all cases: radiometric filter-binding kinase assay, Kinase HotSpot
Conditions in all cases: compound 0.5 µM; ATP 10 µM
TEC (human) = TEC (human) (UniProt P42680)
MAP3K2 (human) = MAP3K2 (human) (UniProt Q9Y2U5)
MAP3K14 (human) = MAP3K14 (human) (UniProt Q99558)
STK16 (human) = STK16 (human) (UniProt O75716)
MAPK10 (human) = MAPK10 (human) (UniProt P53779)
MAPK14 (human) = MAPK14 (human) (UniProt Q16539)
Chain of MAPK14 (human) (Q16539 whole entry, looked up): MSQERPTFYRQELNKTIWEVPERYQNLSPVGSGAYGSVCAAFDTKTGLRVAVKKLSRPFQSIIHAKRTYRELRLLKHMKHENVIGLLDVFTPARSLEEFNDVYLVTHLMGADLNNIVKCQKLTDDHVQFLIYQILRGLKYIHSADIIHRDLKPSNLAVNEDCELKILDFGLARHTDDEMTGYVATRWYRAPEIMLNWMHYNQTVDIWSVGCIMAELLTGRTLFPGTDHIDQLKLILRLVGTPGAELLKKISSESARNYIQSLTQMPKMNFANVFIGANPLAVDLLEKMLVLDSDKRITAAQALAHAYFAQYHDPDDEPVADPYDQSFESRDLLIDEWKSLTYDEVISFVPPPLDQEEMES

SGK2 (human) = SGK2 (human) (UniProt Q9HBY8)
EPHA5 (human) = EPHA5 (human) (UniProt P54756)
MYLK (human) = MYLK (human) (UniProt Q15746)
RPS6KA6 KD1 KD2 (human) = RPS6KA6 KD1 KD2 (human) (UniProt Q9UK32)
MAPK11 (human) = MAPK11 (human) (UniProt Q15759)
CSNK1D (human) = CSNK1D (human) (UniProt P48730)
PTK2B (human) = PTK2B (human) (UniProt Q14289)
ULK1 (human) = ULK1 (human) (UniProt O75385)
CDK6 CCND3 (human) = CDK6 CCND3 (human) (UniProt P30281+Q00534)
CSF1R (human) = CSF1R (human) (UniProt P07333)
WNK3 (human) = WNK3 (human) (UniProt Q9BYP7)
FGFR1 (human) = FGFR1 (human) (UniProt P11362)
CAMK2G (human) = CAMK2G (human) (UniProt Q13555)
Chain of CAMK2G (human) (Q13555 whole entry, looked up): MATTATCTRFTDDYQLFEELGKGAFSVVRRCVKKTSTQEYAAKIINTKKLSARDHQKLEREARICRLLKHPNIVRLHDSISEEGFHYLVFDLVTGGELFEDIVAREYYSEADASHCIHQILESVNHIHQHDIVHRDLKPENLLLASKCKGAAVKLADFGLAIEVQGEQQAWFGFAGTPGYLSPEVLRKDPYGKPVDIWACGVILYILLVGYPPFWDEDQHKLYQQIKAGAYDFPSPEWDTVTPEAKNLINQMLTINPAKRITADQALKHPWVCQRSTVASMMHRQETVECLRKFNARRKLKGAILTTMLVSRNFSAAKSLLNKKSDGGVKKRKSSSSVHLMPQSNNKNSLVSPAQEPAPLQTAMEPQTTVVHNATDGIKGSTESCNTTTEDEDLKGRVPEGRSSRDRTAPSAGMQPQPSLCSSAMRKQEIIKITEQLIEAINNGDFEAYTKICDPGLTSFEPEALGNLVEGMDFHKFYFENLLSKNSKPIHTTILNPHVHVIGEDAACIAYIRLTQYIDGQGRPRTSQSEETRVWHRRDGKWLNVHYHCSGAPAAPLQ

PASK (human) = PASK (human) (UniProt Q96RG2)
GRK6 (human) = GRK6 (human) (UniProt P43250)
Chain of GRK6 (human) (P43250 whole entry, looked up): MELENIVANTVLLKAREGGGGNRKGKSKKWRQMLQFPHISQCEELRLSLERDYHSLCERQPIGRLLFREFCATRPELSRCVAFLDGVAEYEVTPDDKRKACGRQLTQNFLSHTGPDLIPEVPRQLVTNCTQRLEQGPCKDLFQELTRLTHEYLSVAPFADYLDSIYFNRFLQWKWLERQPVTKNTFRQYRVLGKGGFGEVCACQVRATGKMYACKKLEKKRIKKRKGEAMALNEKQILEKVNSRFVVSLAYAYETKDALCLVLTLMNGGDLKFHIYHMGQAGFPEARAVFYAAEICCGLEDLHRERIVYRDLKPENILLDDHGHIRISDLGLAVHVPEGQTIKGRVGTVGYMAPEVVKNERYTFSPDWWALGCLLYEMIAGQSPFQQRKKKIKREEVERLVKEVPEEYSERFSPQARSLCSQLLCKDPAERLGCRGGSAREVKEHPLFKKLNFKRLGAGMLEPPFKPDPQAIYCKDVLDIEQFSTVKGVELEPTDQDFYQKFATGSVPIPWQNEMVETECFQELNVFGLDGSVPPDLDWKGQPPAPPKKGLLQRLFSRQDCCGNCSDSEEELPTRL

JAK3 JH1 JH2 (human) = JAK3 JH1 JH2 (human) (UniProt P52333)
Chain of JAK3 JH1 JH2 (human) (P52333 whole entry, looked up): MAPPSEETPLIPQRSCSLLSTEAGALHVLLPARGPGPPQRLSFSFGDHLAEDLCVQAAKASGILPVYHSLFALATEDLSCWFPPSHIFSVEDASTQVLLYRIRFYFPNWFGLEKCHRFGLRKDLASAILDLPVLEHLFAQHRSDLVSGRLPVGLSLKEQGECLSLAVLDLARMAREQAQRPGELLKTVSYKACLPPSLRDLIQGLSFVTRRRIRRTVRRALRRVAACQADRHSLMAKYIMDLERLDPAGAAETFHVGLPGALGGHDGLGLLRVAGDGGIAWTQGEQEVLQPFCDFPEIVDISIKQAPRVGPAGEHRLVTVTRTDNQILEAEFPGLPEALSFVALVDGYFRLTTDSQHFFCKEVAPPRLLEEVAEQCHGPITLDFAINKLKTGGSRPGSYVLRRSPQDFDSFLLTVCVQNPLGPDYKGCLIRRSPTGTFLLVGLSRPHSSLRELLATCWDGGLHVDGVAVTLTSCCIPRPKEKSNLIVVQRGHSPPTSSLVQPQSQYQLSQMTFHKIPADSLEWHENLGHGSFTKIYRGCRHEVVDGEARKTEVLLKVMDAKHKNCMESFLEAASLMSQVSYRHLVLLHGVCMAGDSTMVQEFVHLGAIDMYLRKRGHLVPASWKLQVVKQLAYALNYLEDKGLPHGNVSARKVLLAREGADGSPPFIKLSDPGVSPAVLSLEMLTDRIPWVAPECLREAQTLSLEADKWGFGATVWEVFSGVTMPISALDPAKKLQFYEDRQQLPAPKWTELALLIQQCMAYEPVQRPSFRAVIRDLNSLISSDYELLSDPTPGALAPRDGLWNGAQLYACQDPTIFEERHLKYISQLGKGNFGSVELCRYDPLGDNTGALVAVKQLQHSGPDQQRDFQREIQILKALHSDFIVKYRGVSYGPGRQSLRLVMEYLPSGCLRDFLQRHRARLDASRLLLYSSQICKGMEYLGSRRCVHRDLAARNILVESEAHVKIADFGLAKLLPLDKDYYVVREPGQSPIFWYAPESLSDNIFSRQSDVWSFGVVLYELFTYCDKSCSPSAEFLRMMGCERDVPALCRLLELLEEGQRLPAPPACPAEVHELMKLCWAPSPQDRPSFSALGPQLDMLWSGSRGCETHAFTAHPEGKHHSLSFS

PRKACA (human) = PRKACA (human) (UniProt P17612)
SGK3 (human) = SGK3 (human) (UniProt Q96BR1)
KDR (human) = KDR (human) (UniProt P35968)
Chain of KDR (human) (P35968 whole entry, looked up): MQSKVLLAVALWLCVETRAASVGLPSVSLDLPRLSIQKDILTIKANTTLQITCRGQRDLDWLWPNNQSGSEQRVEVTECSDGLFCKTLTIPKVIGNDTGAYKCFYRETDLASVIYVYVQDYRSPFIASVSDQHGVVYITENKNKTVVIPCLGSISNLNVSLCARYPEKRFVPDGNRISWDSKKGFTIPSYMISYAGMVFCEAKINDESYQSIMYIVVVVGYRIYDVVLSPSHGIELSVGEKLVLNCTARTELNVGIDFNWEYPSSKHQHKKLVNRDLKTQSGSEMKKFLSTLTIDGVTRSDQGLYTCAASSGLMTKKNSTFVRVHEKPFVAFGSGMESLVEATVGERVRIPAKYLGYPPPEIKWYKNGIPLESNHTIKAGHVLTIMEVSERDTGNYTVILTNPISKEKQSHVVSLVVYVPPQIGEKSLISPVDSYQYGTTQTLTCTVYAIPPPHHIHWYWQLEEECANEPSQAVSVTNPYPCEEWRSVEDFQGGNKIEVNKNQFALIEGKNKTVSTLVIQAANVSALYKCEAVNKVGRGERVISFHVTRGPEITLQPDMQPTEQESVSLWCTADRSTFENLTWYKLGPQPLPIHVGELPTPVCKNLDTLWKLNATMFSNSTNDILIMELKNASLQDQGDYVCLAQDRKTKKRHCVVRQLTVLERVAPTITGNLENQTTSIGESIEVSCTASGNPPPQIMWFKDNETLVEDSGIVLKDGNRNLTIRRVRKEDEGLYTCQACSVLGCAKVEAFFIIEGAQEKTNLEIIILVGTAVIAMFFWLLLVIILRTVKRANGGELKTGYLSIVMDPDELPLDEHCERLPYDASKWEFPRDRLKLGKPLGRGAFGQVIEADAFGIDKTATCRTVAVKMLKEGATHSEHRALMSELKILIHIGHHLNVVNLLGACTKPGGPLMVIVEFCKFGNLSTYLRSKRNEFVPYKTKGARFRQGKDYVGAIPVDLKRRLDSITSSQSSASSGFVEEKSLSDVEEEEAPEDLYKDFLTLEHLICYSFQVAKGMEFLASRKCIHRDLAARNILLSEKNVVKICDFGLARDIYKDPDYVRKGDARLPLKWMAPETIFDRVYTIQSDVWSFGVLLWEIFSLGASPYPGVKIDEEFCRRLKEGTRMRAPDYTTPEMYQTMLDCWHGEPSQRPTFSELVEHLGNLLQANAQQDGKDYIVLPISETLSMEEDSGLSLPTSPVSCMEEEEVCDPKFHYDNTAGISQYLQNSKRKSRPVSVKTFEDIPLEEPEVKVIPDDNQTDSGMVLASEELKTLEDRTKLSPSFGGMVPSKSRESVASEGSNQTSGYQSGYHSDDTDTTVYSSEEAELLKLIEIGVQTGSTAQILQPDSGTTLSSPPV

CDK2 CCNE1 (human) = CDK2 CCNE1 (human) (UniProt P24941+P24864)
PRKD1 (human) = PRKD1 (human) (UniProt Q15139)
NEK3 (human) = NEK3 (human) (UniProt P51956)
HIPK1 (human) = HIPK1 (human) (UniProt Q86Z02)
INSRR (human) = INSRR (human) (UniProt P14616)
ROCK2 (human) = ROCK2 (human) (UniProt O75116)
NEK9 (human) = NEK9 (human) (UniProt Q8TD19)
DYRK4 (human) = DYRK4 (human) (UniProt Q9NR20)
MLTK (human) = MLTK (human) (UniProt Q9NYL2)
RPS6KA5 KD2 (human) = RPS6KA5 KD2 (human) (UniProt O75582)
PRKCA (human) = PRKCA (human) (UniProt P17252)
MARK3 (human) = MARK3 (human) (UniProt P27448)
CAMK2A (human) = CAMK2A (human) (UniProt Q9UQM7)
PIM1 (human) = PIM1 (human) (UniProt P11309)
PDPK1 (human) = PDPK1 (human) (UniProt O15530)
STK11 (human) = STK11 (human) (UniProt Q15831)
NEK11 (human) = NEK11 (human) (UniProt Q8NG66)

Chain of MAPK10 (human) (P53779 whole entry, looked up): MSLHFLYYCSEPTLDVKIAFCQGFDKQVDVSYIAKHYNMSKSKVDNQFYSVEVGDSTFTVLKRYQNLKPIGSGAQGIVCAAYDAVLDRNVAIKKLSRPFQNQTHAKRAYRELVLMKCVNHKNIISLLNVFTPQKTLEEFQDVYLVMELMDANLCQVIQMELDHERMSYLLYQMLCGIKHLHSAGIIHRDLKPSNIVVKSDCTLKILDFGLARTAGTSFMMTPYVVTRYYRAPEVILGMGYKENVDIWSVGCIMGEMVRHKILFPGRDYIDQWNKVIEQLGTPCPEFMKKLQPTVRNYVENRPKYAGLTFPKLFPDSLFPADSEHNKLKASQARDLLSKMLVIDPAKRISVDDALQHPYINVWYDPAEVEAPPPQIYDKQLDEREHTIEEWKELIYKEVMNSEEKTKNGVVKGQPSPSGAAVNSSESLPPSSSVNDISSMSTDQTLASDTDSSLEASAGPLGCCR
Chain of MAP3K2 (human) (Q9Y2U5 whole entry, looked up): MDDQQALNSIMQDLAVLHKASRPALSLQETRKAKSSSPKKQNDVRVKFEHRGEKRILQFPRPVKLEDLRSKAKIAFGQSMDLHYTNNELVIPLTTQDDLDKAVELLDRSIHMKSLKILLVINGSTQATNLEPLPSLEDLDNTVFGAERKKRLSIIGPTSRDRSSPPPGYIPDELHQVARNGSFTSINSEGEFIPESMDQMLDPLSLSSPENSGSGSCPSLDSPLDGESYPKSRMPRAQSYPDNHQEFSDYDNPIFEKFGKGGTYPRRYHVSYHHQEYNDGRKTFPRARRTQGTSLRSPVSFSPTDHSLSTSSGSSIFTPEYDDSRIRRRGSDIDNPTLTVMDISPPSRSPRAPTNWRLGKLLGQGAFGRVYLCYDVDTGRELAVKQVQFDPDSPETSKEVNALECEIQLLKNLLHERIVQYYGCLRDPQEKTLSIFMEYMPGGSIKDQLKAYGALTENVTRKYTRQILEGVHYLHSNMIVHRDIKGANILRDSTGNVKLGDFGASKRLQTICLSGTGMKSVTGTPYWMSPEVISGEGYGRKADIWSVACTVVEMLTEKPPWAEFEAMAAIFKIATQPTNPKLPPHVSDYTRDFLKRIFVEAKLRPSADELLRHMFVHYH

In the case of CCCCc1c(-c2ccc(O)cc2)[nH]c2nccnc12, the residual activity (TEC (human)) is reported as 87.3%, the residual activity (MAP3K2 (human)) is reported as 77.2% and the residual activity (MAP3K14 (human)) is reported as 95.4%. The residual activity (STK16 (human)) was 55.4%, the residual activity (MAPK10 (human)) was 100% and the residual activity (MAPK14 (human)) was 102%. The residual activity (SGK2 (human)) was 99.4%, the residual activity (EPHA5 (human)) was 96.4% and the residual activity (MYLK (human)) was 101%. It also gave a residual activity (RPS6KA6 KD1 KD2 (human)) of 72.7%, a residual activity (MAPK11 (human)) of 103% and a residual activity (CSNK1D (human)) of 93.7%. The residual activity (PTK2B (human)) was 99%, the residual activity (ULK1 (human)) was 82.5% and the residual activity (CDK6 CCND3 (human)) was 84.6%. The residual activity (CSF1R (human)) was 38.4%, the residual activity (WNK3 (human)) was 90.3% and the residual activity (FGFR1 (human)) was 81.8%. It also gave a residual activity (CAMK2G (human)) of 101%, a residual activity (PASK (human)) of 99.5% and a residual activity (GRK6 (human)) of 83.5%. For the same compound, the residual activity (JAK3 JH1 JH2 (human)) was 92.2%, the residual activity (PRKACA (human)) was 89.7% and the residual activity (SGK3 (human)) was 95.3%. It also gave a residual activity (KDR (human)) of 89.8%, a residual activity (CDK2 CCNE1 (human)) of 29.9% and a residual activity (PRKD1 (human)) of 77.7%. For the same compound, the residual activity (NEK3 (human)) was 103%, the residual activity (HIPK1 (human)) was 97.6% and the residual activity (INSRR (human)) was 86.6%. For the same compound, the residual activity (ROCK2 (human)) was 97.5%, the residual activity (NEK9 (human)) was 105% and the residual activity (DYRK4 (human)) was 99.7%. The residual activity (MLTK (human)) was 71%, the residual activity (RPS6KA5 KD2 (human)) was 101% and the residual activity (PRKCA (human)) was 83.7%. It also gave a residual activity (MARK3 (human)) of 88.2%, a residual activity (CAMK2A (human)) of 97.8% and a residual activity (PIM1 (human)) of 83.8%. It also gave a residual activity (PDPK1 (human)) of 95.9%, a residual activity (STK11 (human)) of 33.5% and a residual activity (NEK11 (human)) of 92.5%.

N#Cc1c(NC(=O)c2cccc3ccccc23)sc2c1CCCC2 was tested, and the residual activity (TEC (human)) was 111%, the residual activity (MAP3K2 (human)) was 84% and the residual activity (MAP3K14 (human)) was 111%. For the same compound, the residual activity (STK16 (human)) was 98.5%, the residual activity (MAPK10 (human)) was 112% and the residual activity (MAPK14 (human)) was 98.1%. For the same compound, the residual activity (SGK2 (human)) was 101%, the residual activity (EPHA5 (human)) was 99.6% and the residual activity (MYLK (human)) was 98.7%. For the same compound, the residual activity (RPS6KA6 KD1 KD2 (human)) was 101%, the residual activity (MAPK11 (human)) was 104% and the residual activity (CSNK1D (human)) was 106%. For the same compound, the residual activity (PTK2B (human)) was 108%, the residual activity (ULK1 (human)) was 99.8% and the residual activity (CDK6 CCND3 (human)) was 99%. The residual activity (CSF1R (human)) was 97.2%, the residual activity (WNK3 (human)) was 99.2% and the residual activity (FGFR1 (human)) was 105%. It also gave a residual activity (CAMK2G (human)) of 99.6%, a residual activity (PASK (human)) of 98.3% and a residual activity (GRK6 (human)) of 108%. For the same compound, the residual activity (JAK3 JH1 JH2 (human)) was 101%, the residual activity (PRKACA (human)) was 102% and the residual activity (SGK3 (human)) was 107%. It also gave a residual activity (KDR (human)) of 100%, a residual activity (CDK2 CCNE1 (human)) of 89.1% and a residual activity (PRKD1 (human)) of 101%. It also gave a residual activity (NEK3 (human)) of 93.2%, a residual activity (HIPK1 (human)) of 107% and a residual activity (INSRR (human)) of 94.3%. It also gave a residual activity (ROCK2 (human)) of 98%, a residual activity (NEK9 (human)) of 96% and a residual activity (DYRK4 (human)) of 98.1%. For the same compound, the residual activity (MLTK (human)) was 93.2%, the residual activity (RPS6KA5 KD2 (human)) was 99.6% and the residual activity (PRKCA (human)) was 99.5%. The residual activity (MARK3 (human)) was 97.1%, the residual activity (CAMK2A (human)) was 104% and the residual activity (PIM1 (human)) was 105%. The residual activity (PDPK1 (human)) was 92.1%, the residual activity (STK11 (human)) was 96.1% and the residual activity (NEK11 (human)) was 105%.

With N/C(=N\N=C/c1ccc(-c2cccc([N+](=O)[O-])c2)o1)N[N+](=O)[O-] the residual activity (TEC (human)) was 147%, the residual activity (MAP3K2 (human)) was 97% and the residual activity (MAP3K14 (human)) was 77.9%. For the same compound, the residual activity (STK16 (human)) was 105%, the residual activity (MAPK10 (human)) was 87% and the residual activity (MAPK14 (human)) was 90.2%. For the same compound, the residual activity (SGK2 (human)) was 101%, the residual activity (EPHA5 (human)) was 100% and the residual activity (MYLK (human)) was 92.5%. For the same compound, the residual activity (RPS6KA6 KD1 KD2 (human)) was 96.9%, the residual activity (MAPK11 (human)) was 96.6% and the residual activity (CSNK1D (human)) was 99.8%. The residual activity (PTK2B (human)) was 91.5%, the residual activity (ULK1 (human)) was 93.7% and the residual activity (CDK6 CCND3 (human)) was 94.7%. For the same compound, the residual activity (CSF1R (human)) was 94.5%, the residual activity (WNK3 (human)) was 96.6% and the residual activity (FGFR1 (human)) was 97.6%. The residual activity (CAMK2G (human)) was 82.1%, the residual activity (PASK (human)) was 88.4% and the residual activity (GRK6 (human)) was 98.3%. The residual activity (JAK3 JH1 JH2 (human)) was 103%, the residual activity (PRKACA (human)) was 93.3% and the residual activity (SGK3 (human)) was 107%. For the same compound, the residual activity (KDR (human)) was 96.7%, the residual activity (PRKD1 (human)) was 103% and the residual activity (NEK3 (human)) was 101%. For the same compound, the residual activity (HIPK1 (human)) was 81.1%, the residual activity (INSRR (human)) was 99.2% and the residual activity (ROCK2 (human)) was 86.3%. It also gave a residual activity (NEK9 (human)) of 91.8%, a residual activity (DYRK4 (human)) of 92.7% and a residual activity (MLTK (human)) of 98%. The residual activity (RPS6KA5 KD2 (human)) was 101%, the residual activity (PRKCA (human)) was 115% and the residual activity (MARK3 (human)) was 107%. For the same compound, the residual activity (CAMK2A (human)) was 100%, the residual activity (PIM1 (human)) was 92.9% and the residual activity (PDPK1 (human)) was 94.6%. It also gave a residual activity (STK11 (human)) of 98.7% and a residual activity (NEK11 (human)) of 110%.
